# System: Staphylococcus epidermidis
# Assay: Antimicrobial activity against Staphylococcus epidermidis ATCC 12228
# Assay type: functional
row,MIC,Structure (SMILES)
1,≤ 6.3 µg/mL,CCCCCCCCCCC(O)C[C@H]1C[C@H](O)[C@@H](O)[C@@H](CO)N1 (stereo partly drawn) [BATZELLASIDE A]
2,≤ 6.3 µg/mL,CCCCCCCCCC(O)C[C@H]1C[C@H](O)[C@@H](O)[C@@H](CO)N1 (stereo partly drawn) [BATZELLASIDE B]
3,≤ 6.3 µg/mL,CCCCCCCCCCCC(O)C[C@H]1C[C@H](O)[C@@H](O)[C@@H](CO)N1 (stereo partly drawn) [BATZELLASIDE C]

# — ChEMBL document CHEMBL1142572, “A Madagascar Sponge Batzella sp. as a source of alkylated iminosugars” (2005)
